This assay deals with T1, human FPTase (Homo sapiens, UniProt P49354+P49356).
T1 construct: made in house
In words: In vitro inhibition of human farnesyl-protein transferase. It counts as biochemical. The conditions noted are these: [3H]-FPP, 100 nM Ras-CVIM, 30 min, read-out: IC50 against human FPTase.

Molecules are shown by their SMILES. Where a name gives a salt, the structure may show the parent alone. A value given as a limit tells only on which side of the number the result lay.

A word on the IC50: it is the concentration needed to halve the response being measured. As for `CC(=O)N(CCNc1cccc(Cl)c1)Cc1cncn1Cc1ccc(C#N)cc1` [Example 1, N-[1-(4-cyanobenzyl)-5-imidazolylmethyl]-N-[2-((3-chlorophenyl)amino)ethyl]acetamide dihydrochloride], the concentration for half-maximal inhibition (IC50) is less than 10 µM.

These data come from patent US5981562A, “Inhibitors of farnesyl-protein transferase” (Merck & Co., Inc., priority 1997, dated 1999).
